Assay results from US20110086899A1, “PHARMACEUTICAL COMPOSITIONS FOR ORAL ADMINISTRATION” (XENON PHARMACEUTICALS INC., priority 2009, published 2011).
Entries after “also recorded” stand apart in the source; their conditions may differ.

Tests used:
sodium channel = test: guanidine influx assay (WO 06/110917, BIOLOGICAL EXAMPLE 1); format: cell-based; details: inhibition of ion flux through a sodium channel
Description: Typically, a successful therapeutic effective amount of an pharmaceutical composition of the invention for oral administration to a mammal, in need thereof, will meet some or all of the following criteria. Animal model efficacy of a spiro-oxindole compound of the invention, as a racemate, a single enantiomer, or a non-racemic mixture of enantiomers, or a pharmaceutically acceptable salt thereof, should be less than about 0.1 μg/Kg to about 100 mg/Kg body weight and the target human dose of a spiro-oxindole compound of the invention, as a racemate, a single enantiomer, or a non-racemic mixture of enantiomers, or a pharmaceutically acceptable salt thereof, should be between 0.1 μg/Kg to about 100 mg/Kg body weight, although doses outside of this range may be acceptable (“mg/Kg” means milligrams of compound per kilogram of body mass of the subject to whom it is being administered). The therapeutic index (or ratio of toxic dose to therapeutic dose) of a spiro-oxindole compound of the invention, as a racemate, a single enantiomer, or a non-racemic mixture of enantiomers, or a pharmaceutically acceptable salt thereof, should be greater than 100. […]

[1] = solubility in excipients and excipient combinations; format: physicochemical
Description: Determination of the solubility of a spiro-oxindole compound of the invention, as a racemate, a single enantiomer, or a non-racemic mixture of enantiomers, or a pharmaceutically acceptable salt thereof, in each of the above excipients was carried out by weighing a specified quantity of the excipient into a scintillation vial and then adding a weighed quantity of the spiro-oxindole compound of the invention, as a racemate, a single enantiomer, or a non-racemic mixture of enantiomers, or a pharmaceutically acceptable salt thereof. Heating and vortexing was then applied as required to dissolve the spiro-oxindole compound of the invention, as a racemate, a single enantiomer, or a non-racemic mixture of enantiomers, or a pharmaceutically acceptable salt thereof. If the initial quantity of the spiro-oxindole compound of the invention, as a racemate, a single enantiomer, or a non-racemic mixture of enantiomers, or a pharmaceutically acceptable salt thereof, dissolved, then an additional amount of the spiro-oxindole compound of the invention, as a racemate, a single enantiomer, or a non-racemic mixture of enantiomers, or a pharmaceutically acceptable salt thereof, was added to determine the maximum solubility.
The rationale for preparing each combination is given as well: […]

[2] = system: pain following extraction of impacted third molar teeth; test: clinical trial for treatment of dental pain; format: in vivo, human; details: single 500 mg oral dose of composition comprising COMPOUND B
Description: The purpose of this clinical trial was to compare the safety and efficacy (onset, duration of relief, and overall efficacy) of a single 500 mg dose of a pharmaceutical composition of the invention comprising COMPOUND B versus a placebo dose for relief of pain following extraction of impacted third molar teeth. Sixty-one subjects were enrolled in the study. The mean age for the subjects was 20.4 years, and all subjects were male. The majority of subjects were Caucasians (95.1%). The severity and relief of the pain was measured using an 11-point Pain Intensity Numerical Rating Scale (graded from 0=no pain at all to 10=worst pain imaginable) (PINRS) and a 5-point Categorical Pain Relief Scale (REL). Subjects completed the PINRS after surgery, but before the administration of (S)-enantiomer of the invention. Efficacy variables were derived from the REL and PINRS scores and included total pain relief (TOTPAR), pain intensity difference (PID), and summed pain intensity difference (SPID) and evaluated at time points of 4, 6, 8, and 12 hours after administration of the pharmaceutical composition of the invention comprising COMPOUND B.

[3] = molecular target: Nav1.7 voltage-gated sodium channel (Homo sapiens, UniProt Q15858); test: inhibition of Nav1.7
Chain of Nav1.7 voltage-gated sodium channel (Q15858 whole entry): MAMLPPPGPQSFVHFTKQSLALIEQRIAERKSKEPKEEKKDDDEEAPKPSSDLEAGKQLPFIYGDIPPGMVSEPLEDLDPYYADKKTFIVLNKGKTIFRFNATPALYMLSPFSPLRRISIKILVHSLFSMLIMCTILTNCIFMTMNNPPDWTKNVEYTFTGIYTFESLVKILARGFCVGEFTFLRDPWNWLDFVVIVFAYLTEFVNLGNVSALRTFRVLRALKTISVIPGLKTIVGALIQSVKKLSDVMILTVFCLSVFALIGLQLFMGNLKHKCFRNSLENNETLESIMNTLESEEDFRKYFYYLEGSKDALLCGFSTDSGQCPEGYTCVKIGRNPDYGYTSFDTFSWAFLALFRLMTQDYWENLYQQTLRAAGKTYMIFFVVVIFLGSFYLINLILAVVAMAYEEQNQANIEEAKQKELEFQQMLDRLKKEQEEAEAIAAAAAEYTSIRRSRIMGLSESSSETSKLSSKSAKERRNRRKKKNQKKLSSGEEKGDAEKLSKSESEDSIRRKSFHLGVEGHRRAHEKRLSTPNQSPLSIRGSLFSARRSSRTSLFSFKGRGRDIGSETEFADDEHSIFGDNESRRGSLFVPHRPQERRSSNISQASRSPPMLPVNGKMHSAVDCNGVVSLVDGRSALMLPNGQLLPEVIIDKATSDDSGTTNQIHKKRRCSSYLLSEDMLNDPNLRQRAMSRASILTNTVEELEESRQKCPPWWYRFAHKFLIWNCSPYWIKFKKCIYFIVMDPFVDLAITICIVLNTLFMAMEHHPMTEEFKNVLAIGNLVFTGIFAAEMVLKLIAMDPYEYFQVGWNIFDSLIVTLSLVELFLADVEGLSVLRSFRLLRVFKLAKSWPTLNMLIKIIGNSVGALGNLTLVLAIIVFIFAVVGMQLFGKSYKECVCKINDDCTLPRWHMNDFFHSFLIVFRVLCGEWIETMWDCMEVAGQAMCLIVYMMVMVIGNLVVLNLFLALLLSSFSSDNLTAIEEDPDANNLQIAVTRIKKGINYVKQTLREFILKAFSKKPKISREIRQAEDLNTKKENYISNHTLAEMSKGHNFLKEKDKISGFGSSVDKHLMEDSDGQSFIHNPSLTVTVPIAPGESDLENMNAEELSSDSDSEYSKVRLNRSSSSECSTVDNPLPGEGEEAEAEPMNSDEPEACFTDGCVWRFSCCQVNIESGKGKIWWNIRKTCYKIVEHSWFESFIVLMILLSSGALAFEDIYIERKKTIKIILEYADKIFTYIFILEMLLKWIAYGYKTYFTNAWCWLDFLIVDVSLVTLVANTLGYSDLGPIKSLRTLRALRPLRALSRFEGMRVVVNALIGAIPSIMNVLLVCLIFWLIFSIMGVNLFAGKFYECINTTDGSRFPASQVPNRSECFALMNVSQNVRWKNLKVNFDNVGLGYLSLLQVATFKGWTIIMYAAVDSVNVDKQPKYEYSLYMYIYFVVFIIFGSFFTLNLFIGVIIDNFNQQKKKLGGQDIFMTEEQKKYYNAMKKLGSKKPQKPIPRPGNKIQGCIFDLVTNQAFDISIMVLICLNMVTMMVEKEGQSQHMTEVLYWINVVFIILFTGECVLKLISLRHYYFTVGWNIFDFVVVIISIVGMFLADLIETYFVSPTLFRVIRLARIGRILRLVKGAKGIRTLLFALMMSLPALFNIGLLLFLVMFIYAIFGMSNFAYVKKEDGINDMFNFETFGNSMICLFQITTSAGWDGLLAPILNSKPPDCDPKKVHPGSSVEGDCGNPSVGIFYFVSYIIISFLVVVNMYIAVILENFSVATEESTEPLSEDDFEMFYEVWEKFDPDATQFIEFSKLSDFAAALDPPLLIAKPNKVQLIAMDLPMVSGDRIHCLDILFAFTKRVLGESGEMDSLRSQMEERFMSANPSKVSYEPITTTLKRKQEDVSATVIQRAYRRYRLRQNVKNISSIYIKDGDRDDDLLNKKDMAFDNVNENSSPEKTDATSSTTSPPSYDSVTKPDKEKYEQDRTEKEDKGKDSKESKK

[4] = in vivo pharmacokinetic profile after oral administration to dogs; design: species or system male beagle dogs; details: fasted dogs
Description: The in vivo pharmacokinetic profiles of the pharmaceutical compositions of the invention were determined as follows. Pharmaceutical compositions of the invention were orally administered to dogs in a controlled experiment to determine pharmacokinetic profile of a spiro-oxindole compound of the invention in a pharmaceutical composition of the invention.
Non-naïve male beagle dogs (Marshall Farms USA, Inc.) ranging in body weights from 6-10 Kg were used for the study. Each dog was fasted overnight before dosing. The fasted dogs (n=3/group) were given a single dose of 100 mg capsule (as setout in Table 4 above) or 400 mg (4×100 mg capsule) by oral administration (PO). Food was returned 4-hours post-dose. Blood samples were collected via jugular venipuncture at various timepoints ([…], 1, 2, 4, 6, 8, 24 and 48 hrs) after administration and plasma concentration was determined by liquid chromatography mass spectroscopy (LC-MS/MS). Concentrations of the active ingredient in the plasma samples at each timepoint were determined using standard methods known to one skilled in the art. The active ingredient concentrations were plotted against time (time in hours versus concentration in ng/mL) and the area under the curve extrapolated to infinity (AUCinf), the Cmax (peak plasma concentration of the active ingredient) and Tmax (time after administration of the pharmaceutical composition when peak plasma concentration level occurs) were calculated.

| SMILES | IC50 (sodium channel) | solubility in Labrafac ([1]; excipient Labrafac) | solubility in Labrasol ([1]; excipient Labrasol) | solubility in PEG 400 ([1]; excipient PEG 400) | solution in the excipient combinations of Table 2 ([1]; upon mixing and heating to 70-80° C.) | onset of action [2] | pain relief compared to placebo [2] | statistical significance from the placebo [2] | primary and all secondary endpoints (TOTPAR, PID, SPID) versus placebo ([2]; 4, 6, 8 and 12 hours) | inhibition of Nav1.7 [3] | absorption following PO administration ([4]; single PO dose 100 mg or 400 mg) | Tmax ([4]; male, beagle, dog, plasma, single PO dose 100 mg capsule (Table 4) or 400 mg (4×100 mg capsule)) | Cmax ([4]; male, beagle, dog, single PO dose 100 mg capsule (Table 4) or 400 mg (4×100 mg capsule), plasma) | solubility in caprylic/capric glycerides such as Imwitor 742 ([1]; excipient Imwitor 742, compared with other excipients) |
| --- | --- | --- | --- | --- | --- | --- | --- | --- | --- | --- | --- | --- | --- | --- |
| O=C1N(Cc2ccc(C(F)(F)F)o2)c2ccccc2C12COc1cc3c(cc12)OCO3 (racemic) [COMPOUND A, 1′-{[5-(trifluoromethyl)-2-furyl]methyl}spiro[furo[2,3-f][1,3]benzodioxole-7,3′-indol]-2′(1′H)-one] | < 1000 nM | readily soluble in Labrafac ®. The | best excipient; also recorded: soluble in Labrasol ®, the excipient | readily soluble in PEG 400. PEG | suitable for producing a solution |  |  |  |  |  |  |  |  |  |
| O=C1N(Cc2ccc(C(F)(F)F)o2)c2ccccc2[C@]12COc1cc3c(cc12)OCO3 [COMPOUND B, (S)-1′-{[5-(trifluoromethyl)-2-furyl]methyl}spiro[furo[2,3-f][1,3]benzodioxole-7,3′-indol]-2′(1′-H)-one] |  |  |  |  |  | slow onset of action | higher | not achieved | consistent analgesic trend | has been shown to inhibit | readily absorbed | 1 to 3 h | 1300 to 1600 ng/mL | less than other excipients |
